In patent publication EP0603240B1, “SAFENING HERBICIDAL PYRAZOLYLSULFONYLUREAS” (priority 1991, dated 1993):

How the values were obtained:
Assay type in all cases: in vivo
corn [1] = test: Example 3, Procedure I: antidotes against Herbicide No. 1
Procedure: (§1) Containers were filled and compacted with a fumigated silt loam top soil to a depth of about 1.3 cm from the top of the container. A first container was designated as an untreated control, a second container was designated as a herbicide control, and a third container was designated as a herbicide + antidote test container. Each of the containers was seeded with a crop species. A measured amount of herbicide dispersed or dissolved in acetone was applied to a measured quantity of soil. To this same quantity of soil treated with herbicide, there was added a measured amount of antidote dispersed or dissolved in acetone. The quantity of soil treated with the herbicide and antidote was thoroughly mixed to incorporate the herbicide and antidote in the soil uniformly. The seed bed in the third container of soil was covered with the soil treated with the herbicide and antidote and the container was leveled. For each test series, the seed beds of the first and second containers were likewise covered by soil layers. the cover layer of the first container was not treated with herbicide or antidote.
(§2) The containers were then placed on a bench in a greenhouse and sub-irrigated as required for the duration of the test. […] Plant response is measured in terms of percent injury. Antidote efficacy is indicated as the difference in plant injury by the herbicide(s) without the antidote and with the antidote.
(§3) This example details the results of tests with Antidote Nos. 12, 15 and 16 to safen Herbicide No. 1 over application rates ranging from 4.48 kg/ha down to 0.56 kg/ha, in corn in the presence of barnyardgrass. Procedure I described above was used in these tests.

[2] = system: barnyardgrass (Echinochloa crusgalli); test: as above
Procedure: as §1, §2
(§4) In the series of greenhouse tests described below, for routine screening purposes the herbicide/antidote compositions were tested in crop/weed combinations involving corn as the crop and either or both of the weeds barnyardgrass (Echinochloa crusgalli), a monocotyledonous weed, and velvetleaf (Abutilon theophrasti), a dicotyledonous weed. In the tables below, these weeds are indicated by the symbols "BYG" and "VL", respectively.
as §3

corn [3] = test: Example 4, Procedure I: Antidote Nos. 15 and 16 against Herbicide No. 1
Procedure: as §1, §2
(§5) This example describes tests with Antidote Nos. 15 and 16 to safen Herbicide No. 1 according to Procedure I using corn and the weeds barnyardgrass and velvetleaf as the test plants.

[4] = system: barnyardgrass (Echinochloa crusgalli); test: as above
Procedure: as §1, §2, §4, §5

[5] = system: velvetleaf (Abutilon theophrasti); test: as above
Procedure: as §1, §2, §4, §5

corn [6] = test: Example 5, Procedure I: Herbicide No. 1 + alachlor (No. 7) with Antidote Nos. 15 and 16
Procedure: as §1, §2, §5
(§6) In the tests described in this example, the same procedure described in Example 4 was performed simultaneously therewith and under the same conditions, except that a co-herbicide, alachlor, was included in the same composition with Herbicide No. 1 and Antidote Nos. 15 and 16. Alachlor (Herbicide No. 7 herein) is the active ingredient in the commercial product LASSO® herbicide.

[7] = system: barnyardgrass (Echinochloa crusgalli); test: as above
Procedure: as §1, §2, §4, §5, §6

[8] = system: velvetleaf (Abutilon theophrasti); test: as above
Procedure: as §1, §2, §4, §5, §6

corn [9] = test: Example 1, greenhouse Procedure II: antidotes against Herbicide No. 1; conditions: Herbicide No. 1, Table 1
Procedure: as §1, §2
(§7) This procedure is the same as Procedure I, but modified in the manner that after incorporation of the chemicals (herbicide and antidote) the containers with the covered seedbed were treated with an initial overhead irrigation equivalent to 0.6 cm rainfall, then subsequently sub-irrigated as required on greenhouse benches.
as §4
This example was designed to investigate the antidotal efficacy of a plurality of antidotes against Herbicide No. 1 in corn in the presence of barnyard grass and velvetleaf. The antidotes used in this example were Antidote Nos. 1-10, 12, 13 and 15.
The test in this example was conducted as described above for Procedure II. The antidotes were applied to the soil cover layer by pipet after spraying on the herbicide followed by incorporation and simulated rain.

corn [10] = test: Example 17, Procedure II: Herbicide No. 1 + vernolate (No. 11) with antidotes; conditions: Table 17
Procedure: as §1
as §2, with “antidote. […]” for “antidote.”

corn [11] = test: Example 12, Procedure II: Herbicide No. 1 + acetochlor (No. 6) with thirteen antidotes; conditions: Herbicide No.6 2.24 kg/ha alone, no antidote
Procedure: as §1, §2, §7
This example was designed to investigate the efficacy of thirteen different antidotes from different classes of chemistry as safeners against compositions of Herbicide No. 1 and acetochlor (Herbicide No. 6) as co-herbicide. Acetochlor is the active ingredient in the commercial herbicides GUARDIAN® and WENNER®.
The test procedure used in this example was Procedure II described above.

corn [12] = test: Example 13, Procedure II: Herbicide No. 1 + acetochlor (No. 6) with dichloroacetamide antidotes; conditions: Herbicide No.6 4.48 kg/ha alone, no antidote
Procedure: as §1, §2, §7
In this example a plurality of dichloroacetamide antidotes were tested for their safening efficacy against a herbicidal composition comprising Herbicide No. 1 and a co-herbicide, acetochlor (Herbicide No. 6) in corn in the presence of velvetleaf. The procedure used in this example was Procedure II above.

[13] = Herb. No. 1 0.56 kg/ha + antidote 0.56 kg/ha
[14] = Herb. No. 1 0.56 kg/ha + antidote 2.24 kg/ha
[15] = Herb. No. 1 0.56 kg/ha + antidote 8.96 kg/ha
[16] = Herb. No. 1 1.12 kg/ha + antidote 0.56 kg/ha
[17] = Herb. No. 1 1.12 kg/ha + antidote 2.24 kg/ha
[18] = Herb. No. 1 1.12 kg/ha + antidote 8.96 kg/ha
[19] = Herb. No. 1 2.24 kg/ha + antidote 0.56 kg/ha
[20] = Herb. No. 1 2.24 kg/ha + antidote 2.24 kg/ha
[21] = Herb. No. 1 2.24 kg/ha + antidote 8.96 kg/ha
[22] = Herb. No. 1 4.48 kg/ha + antidote 0.56 kg/ha
[23] = Herb. No. 1 4.48 kg/ha + antidote 2.24 kg/ha
[24] = Herb. No. 1 4.48 kg/ha + antidote 8.96 kg/ha
[25] = antidote 8.96 kg/ha alone, no herbicide
[26] = Herb. No. 1 6.72 kg/ha + antidote 0.56 kg/ha
[27] = Herb. No. 1 6.72 kg/ha + antidote 2.24 kg/ha
[28] = Herbicide No.1 4.48 + No.7 0.56 kg/ha + antidote 0.56 kg/ha
[29] = Herbicide No.1 4.48 + No.7 0.56 kg/ha + antidote 2.24 kg/ha
[30] = Herbicide No.1 4.48 + No.7 2.24 kg/ha + antidote 0.56 kg/ha
[31] = Herbicide No.1 4.48 + No.7 2.25 kg/ha + antidote 2.24 kg/ha
[32] = Herbicide No.1 6.72 + No.7 0.56 kg/ha + antidote 0.56 kg/ha
[33] = Herbicide No.1 6.72 + No.7 0.56 kg/ha + antidote 2.24 kg/ha
[34] = Herbicide No.1 6.72 + No.7 2.24 kg/ha + antidote 0.56 kg/ha
[35] = Herbicide No.1 6.72 + No.7 2.25 kg/ha + antidote 2.24 kg/ha

CC1(C)OC(c2cccnc2)CN1C(=O)C(Cl)Cl (stereo not drawn) [compound 16]
% Injury Corn (corn [1]; [13]): 0%
% Injury Corn (corn [1]; [14]): 0%
% Injury Corn (corn [1]; [15]): 0%
% Injury Corn (corn [1]; [16]): 0%
% Injury Corn (corn [1]; [17]): 0%
% Injury Corn (corn [1]; [18]): 0%
% Injury Corn (corn [1]; [19]): 5%
% Injury Corn (corn [1]; [20]): 0%
% Injury Corn (corn [1]; [21]): 0%
% Injury Corn (corn [1]; [22]): 5%
% Injury Corn (corn [1]; [23]): 5%
% Injury Corn (corn [1]; [24]): 5%
% Injury Corn (corn [1]; [25]): 0%
% Injury BYG [2, 13]: 65%
% Injury BYG [2, 14]: 60%
% Injury BYG [2, 15]: 50%
% Injury BYG [2, 16]: 70%
% Injury BYG [2, 17]: 80%
% Injury BYG [2, 18]: 85%
% Injury BYG [2, 19]: 85%
% Injury BYG [2, 20]: 90%
% Injury BYG [2, 21]: 80%
% Injury BYG [2, 22]: 75%
% Injury BYG [2, 23]: 80%
% Injury BYG [2, 24]: 95%
% Injury BYG [2, 25]: 0%
% Injury Corn (corn [3]; [22]): 70%
% Injury Corn (corn [3]; [23]): 15%
% Injury Corn (corn [3]; [26]): 35%
% Injury Corn (corn [3]; [27]): 30%
% Injury BYG [4, 22]: 95%
% Injury BYG [4, 23]: 95%
% Injury BYG [4, 26]: 95%
% Injury BYG [4, 27]: 95%
% Injury VL [5, 22]: 95%
% Injury VL [5, 23]: 95%
% Injury VL [5, 26]: 95%
% Injury VL [5, 27]: 95%
% Injury Corn (corn [6]; [28]): 48%
% Injury Corn (corn [6]; [29]): 18%
% Injury Corn (corn [6]; [30]): 53%
% Injury Corn (corn [6]; [31]): 40%
% Injury Corn (corn [6]; [32]): 43%
% Injury Corn (corn [6]; [33]): 55%
% Injury Corn (corn [6]; [34]): 80%
% Injury Corn (corn [6]; [35]): 55%
% Injury BYG [7, 28]: 100%
% Injury BYG [7, 29]: 100%
% Injury BYG [7, 30]: 100%
% Injury BYG [7, 31]: 100%
% Injury BYG [7, 32]: 95%
% Injury BYG [7, 33]: 100%
% Injury BYG [7, 34]: 100%
% Injury BYG [7, 35]: 100%
% Injury VL [8, 28]: 95%
% Injury VL [8, 29]: 95%
% Injury VL [8, 30]: 98%
% Injury VL [8, 31]: 98%
% Injury VL [8, 32]: 98%
% Injury VL [8, 33]: 95%
% Injury VL [8, 34]: 98%
% Injury VL [8, 35]: 99%

CC1(C)OC(c2cccnc2)CN1C(=O)C(Cl)Cl (stereo not drawn) [Antidote No. 16, Pyridine, 3-[3-(dichloroacetyl)-2,2-dimethyl-5-oxazolidinyl]-]
safening of corn, assessment in words (corn [1]; Herbicide No. 1, Table 3): excellent protection for corn
safening of corn, assessment in words (corn [3]; Herbicide No. 1, Table 4): substantial safening of Herbicide No. 1
safening of corn, assessment in words (corn [6]; Herbicide Nos. 1 and 7, Table 5): substantial safening of corn

O=C(C(Cl)Cl)N1CCCC12CCCC2 [Antidote No. 9, 1-Azaspiro[4,4]noname, 1-(dichloroacetyl)-]
safening of corn, assessment in words (corn [9]): best safening effect across quadruple treatments
safening of corn, assessment in words (corn [10]): best overall safening performance

CCOCN(C(=O)CCl)c1c(C)cccc1CC [Herbicide No.6]
% Injury Corn (corn [11]): 25%
% Injury Corn (corn [12]): 50%
